Measured values reported in article PMC3189276 (2011).

Molecular target: human cannabinoid receptor 2 (hCB2R) (Homo sapiens, UniProt P34972)
Type: binding

human cannabinoid receptor 2 (hCB2R), sequence (P34972 whole entry): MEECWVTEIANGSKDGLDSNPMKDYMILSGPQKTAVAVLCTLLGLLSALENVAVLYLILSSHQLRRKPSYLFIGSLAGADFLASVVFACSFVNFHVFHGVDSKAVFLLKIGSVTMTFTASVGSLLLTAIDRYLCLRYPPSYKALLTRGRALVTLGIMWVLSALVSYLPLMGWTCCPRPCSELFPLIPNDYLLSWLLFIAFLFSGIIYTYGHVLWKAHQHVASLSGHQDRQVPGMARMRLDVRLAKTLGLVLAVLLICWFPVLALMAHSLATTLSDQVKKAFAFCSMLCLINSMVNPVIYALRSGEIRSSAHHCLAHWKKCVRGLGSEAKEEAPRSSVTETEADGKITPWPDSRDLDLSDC

`CC(C)(CCCCCCN=C=S)c1cc(O)c2c(c1)OC(C)(C)[C@H]1CC[C@@H](CO)C[C@@H]21` [AM-841] was tested. Which “% (TMH6 covalently modified)” value did it give?
Its value is ~ 75 % (TMH6 covalently modified).
